Results as given in patent US20130217664A1, “NOVEL COMPOUNDS USEFUL FOR THE TREATMENT OF DEGENERATIVE AND INFLAMMATORY DISEASES” (priority 2012, published 2013).
Like-named read-outs stand apart in the source and are kept apart here.

Experiments:
human TYK2 = biological target: T1, human TYK2 (Homo sapiens, UniProt P29597); test: TYK2 inhibition assay; format: biochemical; settings: recombinant human TYK2 catalytic domain, polyGT substrate
T1 construct: catalytic domain (amino acids 871-1187; catalog number 08-147); purchased Carna Biosciences 08-147
T1 sequence (P29597 871-1187): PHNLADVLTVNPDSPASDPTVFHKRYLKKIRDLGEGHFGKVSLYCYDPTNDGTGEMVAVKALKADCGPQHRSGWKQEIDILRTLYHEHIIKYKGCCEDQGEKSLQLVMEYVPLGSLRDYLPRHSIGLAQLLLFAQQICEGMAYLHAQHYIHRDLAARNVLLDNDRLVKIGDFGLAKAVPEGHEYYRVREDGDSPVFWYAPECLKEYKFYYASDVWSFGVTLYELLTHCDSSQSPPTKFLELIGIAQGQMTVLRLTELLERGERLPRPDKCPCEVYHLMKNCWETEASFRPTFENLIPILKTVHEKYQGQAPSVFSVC
Outline: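 Radiometric kinase reaction run 90 min at 30 °C, stopped with phosphoric acid, washed and scintillation-counted.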

BA/F3 cell line = test: BA/F3 viability assay; settings: Mus musculus, BaF3, 48 h, read-out: BA/F3 IC50
[1] = test system: pSTAT1(2)-luciferase reporter in HeLa cells triggered with human OSM; test: JAK-STAT signalling assay; format: cell-based; settings: HeLa cells, pSTAT1(2)-luciferase reporter, human OSM 33 ng/mL, read-out: JAK-STAT IC50
Outline: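 HeLa cells transiently co-transfected with pSTAT1(2)-luciferase and LacZ control reporter, preincubated with compound 60 min, then stimulated with human OSM (33 ng/mL final) overnight at 37 °C. Luciferase read by luminescence; percent inhibition from vehicle and no-trigger controls, EC50 from dose-response.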

human JAK3 = biological target: T2, human JAK3 (Homo sapiens, UniProt P52333); test: JAK3 inhibition assay; format: biochemical; settings: recombinant human JAK3 catalytic domain; polyGT substrate
T2 construct: catalytic domain (amino acids 781-1124; catalog number PV3855); purchased Invitrogen PV3855
Outline: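 Radiometric kinase assay: 0.5 ng JAK3 with 2.5 μg polyGT in Tris pH 7.5/MgCl2 buffer, 1 μM ATP plus 0.25 μCi 33P-γ-ATP, 1% DMSO, 45 min at 30 °C, stopped with phosphoric acid.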

human JAK1 = biological target: T3, human JAK1 (Homo sapiens, UniProt P23458); test: JAK1 inhibition assay (polyGT substrate / Ulight-JAK1 peptide); format: biochemical; settings: recombinant human JAK1 catalytic domain; polyGT or Ulight-JAK1 peptide assay
T3 construct: catalytic domain, amino acids 866-1154; catalog number PV4774; purchased Invitrogen PV4774
Outline: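 Two formats. PolyGT radiometric: 45 min at 30 °C, stopped with phosphoric acid, counted as cpm. Ulight-JAK1 peptide: 60 min at room temperature, stopped with Eu-anti-phosphotyrosine/EDTA, read as RFU. Percent inhibition normalised to vehicle and 10 μM staurosporine.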

CTLL-2 cell line = test: CTLL2 viability assay; format: cell-based; settings: Mus musculus, IL-2 dependent CTLL2 viability, 24 h, ATP-lite
Source text: The protocol describes the methods to analyse the activity of compounds on their ability to sustain the IL2-dependent viability of CTLL2.
Final DMSO concentration was 0.1%.

human JAK2 = biological target: T4, human JAK2 (Homo sapiens, UniProt O60674); test: JAK2 inhibition assay (polyGT substrate / Ulight-JAK1 peptide); format: biochemical; settings: recombinant human JAK2 catalytic domain; polyGT or Ulight-JAK1 peptide assay
T4 construct: catalytic domain (amino acids 808-1132; catalog number PV4210); GST; purchased Invitrogen PV4210
Outline: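 Radiometric: 0.025 mU JAK2 with 2.5 μg polyGT, 1 μM ATP plus ^33P-ATP in MOPS pH 7.5 buffer, 1% DMSO, 90 min at 30° C.; filter counting. Alternative TR-FRET format with Ulight-JAK1 peptide, 60 min at room temperature, Eu-anti-phosphotyrosine detection.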

T3 sequence (P23458 866-1154): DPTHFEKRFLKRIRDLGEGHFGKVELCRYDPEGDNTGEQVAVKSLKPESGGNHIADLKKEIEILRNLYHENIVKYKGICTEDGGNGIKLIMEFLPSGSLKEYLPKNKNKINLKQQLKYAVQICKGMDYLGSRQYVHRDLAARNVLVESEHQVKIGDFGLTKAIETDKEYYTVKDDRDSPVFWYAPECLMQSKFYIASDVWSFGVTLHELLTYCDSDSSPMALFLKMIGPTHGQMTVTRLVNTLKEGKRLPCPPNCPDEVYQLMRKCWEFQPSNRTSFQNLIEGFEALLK
T4 sequence (O60674 808-1132): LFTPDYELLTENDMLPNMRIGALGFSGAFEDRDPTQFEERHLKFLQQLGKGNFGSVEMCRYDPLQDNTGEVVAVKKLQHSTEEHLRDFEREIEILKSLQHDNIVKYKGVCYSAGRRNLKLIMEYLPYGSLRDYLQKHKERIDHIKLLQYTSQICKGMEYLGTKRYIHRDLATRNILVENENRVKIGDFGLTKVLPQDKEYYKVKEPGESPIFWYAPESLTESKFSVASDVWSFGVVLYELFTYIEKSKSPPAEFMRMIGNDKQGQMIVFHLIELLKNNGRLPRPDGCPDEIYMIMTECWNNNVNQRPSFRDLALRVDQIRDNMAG
T2 sequence (P52333 781-1124): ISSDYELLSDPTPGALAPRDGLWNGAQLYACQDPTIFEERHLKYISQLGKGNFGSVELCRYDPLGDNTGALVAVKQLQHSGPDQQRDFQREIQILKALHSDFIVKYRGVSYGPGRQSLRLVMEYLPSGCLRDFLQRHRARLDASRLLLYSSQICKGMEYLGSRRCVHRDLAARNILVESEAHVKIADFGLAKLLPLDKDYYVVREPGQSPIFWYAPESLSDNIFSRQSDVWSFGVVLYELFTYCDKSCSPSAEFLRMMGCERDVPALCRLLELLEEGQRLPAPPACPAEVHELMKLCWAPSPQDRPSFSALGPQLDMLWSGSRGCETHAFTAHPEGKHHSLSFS

IC50 (human TYK2) [nM] | IC50 (BA/F3 cell line) [nM] | IC50 ([1]; Homo sapiens, HeLa) [nM] | IC50 (human JAK3) [nM] | IC50 (human JAK1) [nM] | IC50 [1] [nM] | IC50 (human JAK2) [nM] | SMILES | IC50 (CTLL-2 cell line) [nM]
101 to 500 | > 5000 | 1 to 500 | 501 to 1000 | 0.01 to 100 |  |  | CCc1cc(-c2cncc(F)c2)ccc1N(C)c1cc2c(cn1)ncn2C [Compound 133, N-(2-ethyl-4-(5-fluoropyridin-3-yl)phenyl)-N,1-dimethyl-1H-imidazo[4,5-c]pyridin-6-amine] | 
 |  | 501 to 1000 |  |  |  |  | CCc1cc(C(N)=O)ccc1N(C)c1cc2c(cn1)ncn2C [Compound 137, 3-Ethyl-4-(methyl(1-methyl-1H-imidazo[4,5-c]pyridin-6-yl)amino)benzamide] | > 1000
0.01 to 100 |  | 1 to 500 | 101 to 500 | 0.01 to 100 |  |  | CCc1cc(C2=CCN(C(=O)C(C)O)CC2)ccc1N(C)c1cc2c(cn1)ncn2C (centres unmarked) [Compound 201, 1-(4-(3-ethyl-4-(methyl(1-methyl-1H-imidazo[4,5-c]pyridin-6-yl)amino)phenyl)-5,6-dihydropyridin-1(2H)-yl)-2-hydroxypropan-1-one] | 501 to 1000
0.01 to 100 | 1000 to 5000 |  | 0.01 to 100 | 0.01 to 100 | 501 to 1000 |  | CCc1cc(C2CCN(C(=O)C(F)F)CC2)ccc1N(C)c1cc2c(cn1)ncn2C [Compound 225, 1-(4-(3-ethyl-4-(methyl(1-methyl-1H-imidazo[4,5-c]pyridin-6-yl)amino)phenyl)piperidin-1-yl)-2,2-difluoroethanone] | 
0.01 to 100 |  |  | 101 to 500 | 0.01 to 100 |  | 0.01 to 100 | CCc1cc(C(C#N)N2CC(NC(=O)OC(C)(C)C)C2)ccc1N(C)c1cc2c(cn1)ncn2C (centres unmarked) [Compound 436, [1-(Cyano-{3-ethyl-4-[methyl-(1-methyl-1H-imidazo[4,5-c]pyridin-6-yl)-amino]-phenyl}-methyl)-azetidin-3-yl]-carbamic acid tert-butyl ester] | > 1000
0.01 to 100 |  |  | 101 to 500 | 0.01 to 100 |  | 0.01 to 100 | CCc1cc(C(C#N)N2CCC(CO)CC2)ccc1N(C)c1cc2c(cn1)ncn2C (centres unmarked) [Compound 437, {3-Ethyl-4-[methyl-(1-methyl-1H-imidazo[4,5-c]pyridin-6-yl)-amino]-phenyl}-(4-hydroxymethyl-piperidin-1-yl)-acetonitrile] | > 1000
0.01 to 100 |  |  | 101 to 500 | 0.01 to 100 |  | 0.01 to 100 | CCc1cc(C(C#N)N2CC[C@@H](F)C2)ccc1N(C)c1cc2c(cn1)ncn2C (stereo partly drawn) [Compound 438, {3-Ethyl-4-[methyl-(1-methyl-1H-imidazo[4,5-c]pyridin-6-yl)-amino]-phenyl}-((R)-3-fluoro-pyrrolidin-1-yl)-acetonitrile] | > 1000
0.01 to 100 |  |  | 501 to 1000 | 0.01 to 100 |  | 101 to 500 | CCc1cc(C(C#N)N2CCC[C@@H]2COC)ccc1N(C)c1cc2c(cn1)ncn2C (stereo partly drawn) [Compound 439, {3-Ethyl-4-[methyl-(1-methyl-1H-imidazo[4,5-c]pyridin-6-yl)-amino]-phenyl}-((R)-2-methoxymethyl-pyrrolidin-1-yl)-acetonitrile] | > 1000
0.01 to 100 |  |  | 101 to 500 | 0.01 to 100 |  | 0.01 to 100 | CCc1cc(C(C#N)N2CC(F)(F)C2)ccc1N(C)c1cc2c(cn1)ncn2C (centres unmarked) [Compound 440, (3,3-Difluoro-azetidin-1-yl)-{3-ethyl-4-[methyl-(1-methyl-1H-imidazo[4,5-c]pyridin-6-yl)-amino]-phenyl}-acetonitrile] | > 1000
0.01 to 100 |  |  | 101 to 500 | 0.01 to 100 |  | 0.01 to 100 | CCc1cc(C(C#N)N2CCC(F)(F)C2)ccc1N(C)c1cc2c(cn1)ncn2C (centres unmarked) [Compound 441, (3,3-Difluoro-pyrrolidin-1-yl)-{3-ethyl-4-[methyl-(1-methyl-1H-imidazol[4,5-d]pyridin-6-yl)-amino]-phenyl}-acetonitrile] | > 1000
0.01 to 100 |  |  | 101 to 500 | 0.01 to 100 |  | 0.01 to 100 | CCc1cc(C(C#N)N2CCC(C#N)C2)ccc1N(C)c1cc2c(cn1)ncn2C (centres unmarked) [Compound 445, 1-(Cyano-{3-ethyl-4-[methyl-(1-methyl-1H-imidazo[4,5-c]pyridin-6-yl)-amino]-phenyl}-methyl)-pyrrolidine-3-carbonitrile] | > 1000
0.01 to 100 |  |  | 501 to 1000 | 0.01 to 100 |  | 0.01 to 100 | CCc1cc(C(C#N)N2CC(C)(C)C2)ccc1N(C)c1cc2c(cn1)ncn2C (centres unmarked) [Compound 446, (3,3-Dimethyl-azetidin-1-yl)-{3-ethyl-4-[methyl-(1-methyl-1H-imidazo[4,5-c]pyridin-6-yl)-amino]-phenyl}-acetonitrile] | > 1000
0.01 to 100 |  |  | 101 to 500 | 0.01 to 100 |  | 0.01 to 100 | CCc1cc(C(C#N)N2CCC(O)CC2)ccc1N(C)c1cc2c(cn1)ncn2C (centres unmarked) [Compound 447, {3-Ethyl-4-[methyl-(1-methyl-1H-imidazo[4,5-c]pyridin-6-yl)-amino]-phenyl}-(4-hydroxy-piperidin-1-yl)-acetonitrile] | > 1000
0.01 to 100 |  |  | 101 to 500 | 0.01 to 100 |  | 0.01 to 100 | CCc1cc(C(C#N)N2CC[C@@H](OC)C2)ccc1N(C)c1cc2c(cn1)ncn2C (stereo partly drawn) [Compound 448, {3-Ethyl-4-[methyl-(1-methyl-1H-imidazo[4,5-c]pyridin-6-yl)-amino]-phenyl}-((R)-3-methoxy-pyrrolidin-1-yl)-acetonitrile] | > 1000
0.01 to 100 |  |  | > 1000 | 0.01 to 100 |  | 101 to 500 | CCc1cc(C(C#N)N2CCN(C)CC2)ccc1N(C)c1cc2c(cn1)ncn2C (centres unmarked) [Compound 449, {3-Ethyl-4-[methyl-(1-methyl-1H-imidazo[4,5-c]pyridin-6-yl)-amino]-phenyl}-(4-methyl-piperazin-1-yl)-acetonitrile] | > 1000
0.01 to 100 |  |  | 101 to 500 | 0.01 to 100 |  | 0.01 to 100 | CCc1cc(C(C#N)N2CC(O)C2)ccc1N(C)c1cc2c(cn1)ncn2C (centres unmarked) [Compound 450, {3-Ethyl-4-[methyl-(1-methyl-1H-imidazo[4,5-c]pyridin-6-yl)-amino]-phenyl}-(3-hydroxy-azetidin-1-yl)-acetonitrile] | > 1000
0.01 to 100 |  |  | 101 to 500 | 0.01 to 100 |  | 0.01 to 100 | CCc1cc(C(C#N)N2CCC(C(N)=O)CC2)ccc1N(C)c1cc2c(cn1)ncn2C (centres unmarked) [Compound 451, 1-(Cyano-{3-ethyl-4-[methyl-(1-methyl-1H-imidazo[4,5-c]pyridin-6-yl)-amino]-phenyl}-methyl)-piperidine-4-carboxylic acid amide] | > 1000
0.01 to 100 |  |  | 0.01 to 100 | 0.01 to 100 |  | 0.01 to 100 | CCc1cc(C(C#N)N2CCC(S(C)(=O)=O)CC2)ccc1N(C)c1cc2c(cn1)ncn2C (centres unmarked) [Compound 452, {3-Ethyl-4-[methyl-(1-methyl-1H-imidazo[4,5-c]pyridin-6-yl)-amino]-phenyl}-(4-methanesulfonyl-piperidin-1-yl)-acetonitrile] | 501 to 1000
0.01 to 100 |  |  | 501 to 1000 | 0.01 to 100 |  | 0.01 to 100 | CCOC(=O)C1CN(C(C#N)c2ccc(N(C)c3cc4c(cn3)ncn4C)c(CC)c2)C1 (centres unmarked) [Compound 453, 1-(Cyano-{3-ethyl-4-[methyl-(1-methyl-1H-imidazo[4,5-c]pyridin-6-yl)-amino]-phenyl}-methyl)-azetidine-3-carboxylic acid ethyl ester] | > 1000
